Patent US11325904B2, “Tropinol esters and related compounds to promote normal processing of APP” (BUCK INSTITUTE FOR RESEARCH ON AGING, priority 2011, dated 2022)

Test system: ectodomain of APP695 (MBP-eAPP230-624, eAPP230-624, TRX-eAPP575-624)
Assay: Surface plasmon resonance (Biacore T100) binding to APP ectodomain fragments
Method: We used surface plasmon resonance to assess binding of compound 14 to the APP ectodomain (eAPP) fragments was done using a Biacore T100. Biotinylated TRX-eAPP575-624 and other eAPP fragments were immobilized onto strepavidin-coated sensor CM5 chip.
Surface plasmon resonance data was obtained with a Biacore T100 for 0-50 μM compound 14 flowed at 1 μl per min in 1% DMSO, 20 mM sodium phosphate, 125 mM sodium chloride pH 7.4 over a CM5 chip cross-linked with proteins containing fragments of the ectodomain of APP695. The three proteins were MBP-eAPP230-624—a fusion protein containing maltose binding protein and residues 230-624 of the ectodomain of APP (90-kDa), eAPP230-624—a protein that contains only residues 230-624 (45-kDa), and TRX-eAPP575-624—a fusion protein containing thioredoxin and residues 575-624 of the ectodomain (20-kDa). The proteins were produced as described in Libeu et al., (2011) J. Alzheimer's Dis., 25(3): 547-566. […] FIG. 11 compares the normalized response for the all three proteins. Comparison of the normalized curves between the proteins was done with PRISM (GraphPad Inc).

SMILES: Cc1nnc(C(=O)O[C@H]2C[C@H]3CC[C@@H](C2)N3C)o1 [Compound 14]
- binding to the ectodomain of APP (0-50 μM compound, 1% DMSO, 20 mM sodium phosphate, 125 mM sodium chloride pH 7.4, CM5 chip): has affinity for APP and can directly bind to the ectodomain of APP
- normalized response curves compared between the eAPP fragments (MBP-eAPP230-624 vs eAPP230-624 vs TRX-eAPP575-624, comparison with PRISM): not significantly different
